Assays:
rice plants = test: Example 1: damage to directly sown rice from safener-dressed seed after clodinafop application; format: in vivo, Oryza sativa; conditions: for Damage to rice (%) after number of days 5: 5 days after application; for Damage to rice (%) after number of days 10: 10 days after application; for Damage to rice (%) after number of days 15: 15 days after application
Description: (§1) 500 g of rice seed material are soaked in water in a plastic dish for 24 hours. After the water has been poured off, the seed material is allowed to dry in air for 1 to 2 hours; 0.025 or 0.25 g of safener of formula (I) or (II) is then added and vigorous shaking is carried out. Sowing is performed 24 hours later.
(§2) 5 days after sowing, the herbicide clodinafop in the form of an EC 100 is applied at a rate of application of 60 g/ha. 5, 10 and 15 days afterwards, the damage to the rice plants that have emerged and to the weeds is determined.

[1] = system: wild rice (Oryza sativa), Echinochloa crus-galli and Leptochloa chinensis; test: Example 1: damage to undesirable grasses after clodinafop application; format: in vivo; conditions: clodinafop 60 g/ha
Description: as §1, §2

cultivated rice = test: Example 2: damage to cultivated rice with or without safener seed dressing after clodinafop application; format: in vivo, Oryza sativa; conditions: for Damage to rice (%) after number of days 5: 5 days; for Damage to rice (%) after number of days 10: 10 days; for Damage to rice (%) after number of days 15: 15 days
Description: as §1
as §2, with “60 or 120” for “60”, “determined. For comparison, untreated cultivated rice is tested under the same conditions as an indicator of the behaviour of wild rice.” for “determined.”

[2] = safener 0.025 g per 500 g of seed material, clodinafop 60 g/ha
[3] = safener 0.25 g per 500 g of seed material, clodinafop 60 g/ha
[4] = rice seed dressed with safener 0.025 g per 500 g
[5] = rice seed dressed with safener 0.25 g per 500 g
[6] = cultivated rice with 0.025 g of safener (per 500 g seed), clodinafop 60 g/ha
[7] = cultivated rice with 0.025 g of safener (per 500 g seed), clodinafop 120 g/ha
[8] = cultivated rice with 0.25 g of safener (per 500 g seed), clodinafop 60 g/ha
[9] = cultivated rice with 0.25 g of safener (per 500 g seed), clodinafop 120 g/ha
[10] = no safener, clodinafop EC 100 60 g/ha applied 5 days after sowing
[11] = cultivated rice without safener (indicator for wild rice), clodinafop 60 g/ha
[12] = cultivated rice without safener (indicator for wild rice), clodinafop 120 g/ha

In the case of `CNC(=O)Nc1ccc(S(=O)(=O)NC(=O)c2ccccc2OC)cc1` [Formula I], the “Damage to rice (%) after number of days 5” value (rice plants; [2]) is reported as 5%, the “Damage to rice (%) after number of days 10” value (rice plants; [2]) is reported as 0% and the “Damage to rice (%) after number of days 15” value (rice plants; [2]) is reported as 0%. For the same molecule, the “Damage to rice (%) after number of days 5” value (rice plants; [3]) was 4%, the “Damage to rice (%) after number of days 10” value (rice plants; [3]) was 3% and the “Damage to rice (%) after number of days 15” value (rice plants; [3]) was 0%. For the same molecule, the “Damage to undesirable grasses* (%)” value [1, 4] was 100% and the “Damage to undesirable grasses* (%)” value [1, 5] was 98%.

In the case of `COC(=O)c1sccc1NS(=O)(=O)c1nc2nc(C)cc(C)n2n1` [Formula II], the “Damage to rice (%) after number of days 5” value (rice plants; [2]) is reported as 21%, the “Damage to rice (%) after number of days 10” value (rice plants; [2]) is reported as 9% and the “Damage to rice (%) after number of days 15” value (rice plants; [2]) is reported as 0%. The “Damage to rice (%) after number of days 5” value (rice plants; [3]) was 5%, the “Damage to rice (%) after number of days 10” value (rice plants; [3]) was 3% and the “Damage to rice (%) after number of days 15” value (rice plants; [3]) was 0%. For the same molecule, the “Damage to undesirable grasses* (%)” value [1, 4] was 98%, the “Damage to undesirable grasses* (%)” value [1, 5] was 99% and the “Damage to rice (%) after number of days 5” value (cultivated rice; [6]) was 18%. For the same molecule, the “Damage to rice (%) after number of days 10” value (cultivated rice; [6]) was 8%, the “Damage to rice (%) after number of days 15” value (cultivated rice; [6]) was 0% and the “Damage to rice (%) after number of days 5” value (cultivated rice; [7]) was 23%. For the same molecule, the “Damage to rice (%) after number of days 10” value (cultivated rice; [7]) was 15%, the “Damage to rice (%) after number of days 15” value (cultivated rice; [7]) was 8% and the “Damage to rice (%) after number of days 5” value (cultivated rice; [8]) was 13%. For the same molecule, the “Damage to rice (%) after number of days 10” value (cultivated rice; [8]) was 9%, the “Damage to rice (%) after number of days 15” value (cultivated rice; [8]) was 0% and the “Damage to rice (%) after number of days 5” value (cultivated rice; [9]) was 25%. For the same molecule, the “Damage to rice (%) after number of days 10” value (cultivated rice; [9]) was 16% and the “Damage to rice (%) after number of days 15” value (cultivated rice; [9]) was 5%.

`C[C@@H](Oc1ccc(Oc2ncc(Cl)cc2F)cc1)C(=O)O` [Clodinafop, clodinafop, reference compound] was tested, and the “Damage to rice (%) after number of days 5” value (rice plants; [10]) was 68%, the “Damage to rice (%) after number of days 10” value (rice plants; [10]) was 65% and the “Damage to rice (%) after number of days 15” value (rice plants; [10]) was 30%. The “Damage to undesirable grasses* (%)” value ([1]; no safener) was 93%, the “Damage to rice (%) after number of days 5” value (cultivated rice; [11]) was 40% and the “Damage to rice (%) after number of days 10” value (cultivated rice; [11]) was 90%. The “Damage to rice (%) after number of days 15” value (cultivated rice; [11]) was 65%, the “Damage to rice (%) after number of days 5” value (cultivated rice; [12]) was 78% and the “Damage to rice (%) after number of days 10” value (cultivated rice; [12]) was 98%. The “Damage to rice (%) after number of days 15” value (cultivated rice; [12]) was 100%.

Reference: patent US20100304967A1, “METHOD OF PROTECTING RICE CROPS” (SYNGENTA CROP PROTECTION, INC., priority 2007, published 2010)
